Where a name gives a salt, the structure may show the parent alone. Read-outs that look alike come from different tables or passages of the source.
Legend:
[1] = molecular target: influenza transcription (flu APR8 virus) (Influenza A virus, UniProt P03433); assay: biochemical; set-up: species or system influenza virus A/PR/8/34 (H1N1)
VSV transcription = VSV transcription (Vesicular stomatitis Indiana virus, UniProt P03523); assay: biochemical
T7 Phage RNA Polymerase = T7 Phage RNA Polymerase (Escherichia phage T7, UniProt P00573); assay: T7 Phage RNA Polymerase assay; assay type: biochemical
T7 Phage RNA Polymerase, sequence (P00573 whole entry): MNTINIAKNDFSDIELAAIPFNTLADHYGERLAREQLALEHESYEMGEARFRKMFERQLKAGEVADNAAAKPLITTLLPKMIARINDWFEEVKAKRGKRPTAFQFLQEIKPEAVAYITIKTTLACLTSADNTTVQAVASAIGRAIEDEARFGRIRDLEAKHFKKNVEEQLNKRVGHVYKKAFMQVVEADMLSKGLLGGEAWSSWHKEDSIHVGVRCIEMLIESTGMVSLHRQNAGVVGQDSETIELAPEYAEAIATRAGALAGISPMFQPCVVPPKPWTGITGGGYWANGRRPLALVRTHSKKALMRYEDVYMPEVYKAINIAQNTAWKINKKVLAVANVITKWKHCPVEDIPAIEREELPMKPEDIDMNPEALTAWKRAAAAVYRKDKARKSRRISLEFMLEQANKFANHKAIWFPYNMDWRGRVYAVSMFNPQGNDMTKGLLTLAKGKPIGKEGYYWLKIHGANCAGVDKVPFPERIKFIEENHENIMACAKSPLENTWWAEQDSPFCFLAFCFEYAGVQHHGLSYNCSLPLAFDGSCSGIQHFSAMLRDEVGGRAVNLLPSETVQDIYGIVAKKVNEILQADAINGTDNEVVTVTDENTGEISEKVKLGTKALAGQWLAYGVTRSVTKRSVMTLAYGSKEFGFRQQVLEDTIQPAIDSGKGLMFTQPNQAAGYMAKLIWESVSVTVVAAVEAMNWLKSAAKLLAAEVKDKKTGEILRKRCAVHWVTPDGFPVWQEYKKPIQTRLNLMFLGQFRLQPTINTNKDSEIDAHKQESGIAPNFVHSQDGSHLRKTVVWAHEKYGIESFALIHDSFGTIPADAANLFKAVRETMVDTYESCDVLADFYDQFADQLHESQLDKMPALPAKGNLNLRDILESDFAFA

Hela RNA Polymerase II = molecular target: T1, Hela RNA Polymerase II (Homo sapiens, UniProt P24928); assay: Hela RNA polymerase II run-off transcription; assay type: biochemical
T1 construct: Hela RNA polymerase II in Hela extract; endogenous in cells; host or cells: HeLa extract
Experimental: d. Hela RNA polymerase II-Compounds or DMSO were incubated in a run-off transcription assay using Hela RNA polymerase II in Hela extract with 50 ng/μl of pD5 template (Adeno major late promoter) in a final reaction containing 500 μM A,C,GTP and 0.5 μM [32]P-UTP in 15 mM Tris-HCl, pH 7.9/7.0 mM MGCl2 /32 mM (NH4)2 SO4 /0.2 mM EDTA/1.3 mM DTT for 60 min at 30° C. Following ethanol precipitation, reaction products were electrophoresed on 8% polyacrylamide gels containing 7M urea.

Hela DNA Polymerase-a = molecular target: T2, Hela DNA Polymerase-a (Homo sapiens, UniProt P09884); assay: Hela DNA Polymerase-a assay; assay type: biochemical
T2 construct: Hela cell DNA polymerase α; endogenous in cells; host or cells: HeLa cells
T2 sequence (P09884 1-1462): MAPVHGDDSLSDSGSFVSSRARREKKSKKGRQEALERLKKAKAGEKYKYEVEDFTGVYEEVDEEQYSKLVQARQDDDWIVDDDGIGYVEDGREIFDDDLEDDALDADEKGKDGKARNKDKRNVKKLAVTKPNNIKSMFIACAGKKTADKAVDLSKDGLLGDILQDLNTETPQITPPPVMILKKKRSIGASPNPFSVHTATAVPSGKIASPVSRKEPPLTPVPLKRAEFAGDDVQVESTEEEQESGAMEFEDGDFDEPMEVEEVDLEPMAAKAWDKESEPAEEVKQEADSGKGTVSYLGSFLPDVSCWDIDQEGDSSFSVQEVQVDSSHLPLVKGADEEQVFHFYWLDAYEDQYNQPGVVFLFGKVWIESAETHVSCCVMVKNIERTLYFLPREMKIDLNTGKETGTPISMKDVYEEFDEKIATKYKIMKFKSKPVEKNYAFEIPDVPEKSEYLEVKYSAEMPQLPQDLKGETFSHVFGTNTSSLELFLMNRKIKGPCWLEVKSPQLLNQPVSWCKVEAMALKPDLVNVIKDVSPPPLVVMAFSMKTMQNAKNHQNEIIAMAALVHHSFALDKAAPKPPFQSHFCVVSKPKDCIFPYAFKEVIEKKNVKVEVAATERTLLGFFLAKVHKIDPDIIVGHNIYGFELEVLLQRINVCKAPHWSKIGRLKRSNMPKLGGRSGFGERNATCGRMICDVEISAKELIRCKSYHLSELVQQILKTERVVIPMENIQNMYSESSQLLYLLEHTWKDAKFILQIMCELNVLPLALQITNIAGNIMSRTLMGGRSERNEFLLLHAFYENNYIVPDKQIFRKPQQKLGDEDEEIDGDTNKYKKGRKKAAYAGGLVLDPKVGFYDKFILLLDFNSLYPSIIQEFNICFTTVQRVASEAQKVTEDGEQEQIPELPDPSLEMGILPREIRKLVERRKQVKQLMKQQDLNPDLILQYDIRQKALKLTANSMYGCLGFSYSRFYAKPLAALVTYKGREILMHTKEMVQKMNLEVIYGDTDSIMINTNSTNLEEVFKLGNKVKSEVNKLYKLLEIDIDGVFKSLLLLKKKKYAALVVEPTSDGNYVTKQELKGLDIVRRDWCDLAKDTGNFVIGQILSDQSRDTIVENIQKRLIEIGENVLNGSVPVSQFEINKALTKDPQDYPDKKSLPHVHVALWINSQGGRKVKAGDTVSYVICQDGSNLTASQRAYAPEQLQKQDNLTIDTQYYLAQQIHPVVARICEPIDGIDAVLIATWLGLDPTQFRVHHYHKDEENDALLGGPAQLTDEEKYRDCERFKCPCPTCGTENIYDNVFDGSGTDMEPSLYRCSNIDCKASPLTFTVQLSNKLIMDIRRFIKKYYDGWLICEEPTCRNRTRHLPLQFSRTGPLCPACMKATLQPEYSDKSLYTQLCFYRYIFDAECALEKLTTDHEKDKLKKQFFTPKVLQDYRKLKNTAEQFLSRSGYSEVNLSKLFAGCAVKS

HIV RNase H = HIV RNase H (Human immunodeficiency virus type 1 group M subtype B, UniProt P04585); assay: HIV RNase H assay; assay type: biochemical
[2] = molecular target: EcoRI Restriction Endonuclease (Escherichia coli, UniProt P00642); assay: EcoRI Restriction Endonuclease assay; assay type: biochemical
EcoRI Restriction Endonuclease, sequence (P00642 2-277): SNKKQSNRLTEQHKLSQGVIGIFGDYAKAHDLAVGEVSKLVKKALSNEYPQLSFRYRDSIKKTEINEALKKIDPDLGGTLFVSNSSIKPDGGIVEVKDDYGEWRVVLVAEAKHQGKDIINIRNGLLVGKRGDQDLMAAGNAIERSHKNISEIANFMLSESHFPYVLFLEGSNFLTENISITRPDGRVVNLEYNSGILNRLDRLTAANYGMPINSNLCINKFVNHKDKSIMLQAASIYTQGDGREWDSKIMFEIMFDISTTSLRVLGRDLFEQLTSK

Influenza Endonuclease = Influenza Endonuclease (Influenza A virus, UniProt P03433); assay: biochemical
[3] = molecular target: influenza virus transcription (Influenza A virus (A/Japan/305-/1957(H2N2)), UniProt Q1K9Q4); assay type: biochemical, influenza virus A/Japan/305/57 (H2N2); conditions: read-out: IC50, inhibition of influenza virus transcription; virus strain A/Japan/305/57 (H2N2); primed with cap1 ALMV
[4] = molecular target: influenza virus transcription (Influenza A virus (A/Port Chalmers/1/1973(H3N2)), UniProt Q1PUD2); assay type: biochemical, influenza virus A/Port Chalmers/1/73 (H3N2); conditions: read-out: IC50, inhibition of influenza virus transcription
[5] = molecular target: influenza virus transcription (Influenza A virus (A/nt/60/1968(H3N2)), UniProt P03434); assay type: biochemical, influenza virus A/Hong Kong/8/68 (H3N2); conditions: read-out: IC50, inhibition of influenza virus transcription; virus strain A/Hong Kong/8/68 (H3N2); primed with cap1 ALMV
[6] = tested on: influenza virus transcription; assay: in vitro transcription primed with cap1 ALMV, B/Hong Kong/5/72; assay type: biochemical, influenza virus B/Hong Kong/5/72; conditions: virus strain B/Hong Kong/5/72, read-out: IC50, inhibition of influenza virus transcription
[7] = molecular target: cap-independent influenza transcription primed with ApG (Influenza A virus, UniProt P03431); assay: biochemical
cap-independent influenza transcription primed with ApG, sequence (P03431 whole entry, looked up): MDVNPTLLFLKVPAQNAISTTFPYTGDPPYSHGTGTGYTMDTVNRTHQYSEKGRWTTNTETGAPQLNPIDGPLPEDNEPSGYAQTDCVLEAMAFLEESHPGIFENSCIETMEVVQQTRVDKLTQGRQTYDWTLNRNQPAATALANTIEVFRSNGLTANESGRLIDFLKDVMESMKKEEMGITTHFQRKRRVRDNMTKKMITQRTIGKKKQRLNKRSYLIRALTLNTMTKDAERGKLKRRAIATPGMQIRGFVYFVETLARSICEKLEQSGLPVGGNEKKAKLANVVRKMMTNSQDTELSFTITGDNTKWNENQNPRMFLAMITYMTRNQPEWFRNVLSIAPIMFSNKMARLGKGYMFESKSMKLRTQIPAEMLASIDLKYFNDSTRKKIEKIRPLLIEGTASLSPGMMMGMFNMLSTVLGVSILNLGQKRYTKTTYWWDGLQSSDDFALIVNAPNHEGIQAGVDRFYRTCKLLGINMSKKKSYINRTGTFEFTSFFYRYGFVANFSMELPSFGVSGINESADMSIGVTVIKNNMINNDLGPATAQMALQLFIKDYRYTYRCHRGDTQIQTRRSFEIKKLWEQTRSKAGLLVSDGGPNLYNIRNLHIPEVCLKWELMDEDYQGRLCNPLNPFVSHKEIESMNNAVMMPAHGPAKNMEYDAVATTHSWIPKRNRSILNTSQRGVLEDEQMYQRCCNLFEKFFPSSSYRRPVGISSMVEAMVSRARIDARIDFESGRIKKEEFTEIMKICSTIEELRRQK

RNase A = RNase A (Bos taurus, UniProt P61823); assay: RNase A assay
RNase A, sequence (P61823 27-150): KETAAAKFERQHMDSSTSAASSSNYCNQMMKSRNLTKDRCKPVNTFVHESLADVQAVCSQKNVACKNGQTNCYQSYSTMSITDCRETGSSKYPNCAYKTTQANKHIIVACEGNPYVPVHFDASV

RNase U2 = RNase U2 (Ustilago sphaerogena, UniProt P00654); assay: RNase U2 assay
RNase U2, sequence (P00654 whole entry): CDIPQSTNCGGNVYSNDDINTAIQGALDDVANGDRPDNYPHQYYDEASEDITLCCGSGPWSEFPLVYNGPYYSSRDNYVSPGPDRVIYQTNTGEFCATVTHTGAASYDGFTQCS

RNase T1 = RNase T1 (Aspergillus oryzae, UniProt P00651); assay: RNase T1 assay
RNase T1, sequence (P00651 27-130): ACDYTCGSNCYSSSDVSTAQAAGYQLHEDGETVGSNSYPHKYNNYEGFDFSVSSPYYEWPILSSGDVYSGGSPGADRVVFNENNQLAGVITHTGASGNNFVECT

VSV transcription, sequence (P03523 whole entry, looked up): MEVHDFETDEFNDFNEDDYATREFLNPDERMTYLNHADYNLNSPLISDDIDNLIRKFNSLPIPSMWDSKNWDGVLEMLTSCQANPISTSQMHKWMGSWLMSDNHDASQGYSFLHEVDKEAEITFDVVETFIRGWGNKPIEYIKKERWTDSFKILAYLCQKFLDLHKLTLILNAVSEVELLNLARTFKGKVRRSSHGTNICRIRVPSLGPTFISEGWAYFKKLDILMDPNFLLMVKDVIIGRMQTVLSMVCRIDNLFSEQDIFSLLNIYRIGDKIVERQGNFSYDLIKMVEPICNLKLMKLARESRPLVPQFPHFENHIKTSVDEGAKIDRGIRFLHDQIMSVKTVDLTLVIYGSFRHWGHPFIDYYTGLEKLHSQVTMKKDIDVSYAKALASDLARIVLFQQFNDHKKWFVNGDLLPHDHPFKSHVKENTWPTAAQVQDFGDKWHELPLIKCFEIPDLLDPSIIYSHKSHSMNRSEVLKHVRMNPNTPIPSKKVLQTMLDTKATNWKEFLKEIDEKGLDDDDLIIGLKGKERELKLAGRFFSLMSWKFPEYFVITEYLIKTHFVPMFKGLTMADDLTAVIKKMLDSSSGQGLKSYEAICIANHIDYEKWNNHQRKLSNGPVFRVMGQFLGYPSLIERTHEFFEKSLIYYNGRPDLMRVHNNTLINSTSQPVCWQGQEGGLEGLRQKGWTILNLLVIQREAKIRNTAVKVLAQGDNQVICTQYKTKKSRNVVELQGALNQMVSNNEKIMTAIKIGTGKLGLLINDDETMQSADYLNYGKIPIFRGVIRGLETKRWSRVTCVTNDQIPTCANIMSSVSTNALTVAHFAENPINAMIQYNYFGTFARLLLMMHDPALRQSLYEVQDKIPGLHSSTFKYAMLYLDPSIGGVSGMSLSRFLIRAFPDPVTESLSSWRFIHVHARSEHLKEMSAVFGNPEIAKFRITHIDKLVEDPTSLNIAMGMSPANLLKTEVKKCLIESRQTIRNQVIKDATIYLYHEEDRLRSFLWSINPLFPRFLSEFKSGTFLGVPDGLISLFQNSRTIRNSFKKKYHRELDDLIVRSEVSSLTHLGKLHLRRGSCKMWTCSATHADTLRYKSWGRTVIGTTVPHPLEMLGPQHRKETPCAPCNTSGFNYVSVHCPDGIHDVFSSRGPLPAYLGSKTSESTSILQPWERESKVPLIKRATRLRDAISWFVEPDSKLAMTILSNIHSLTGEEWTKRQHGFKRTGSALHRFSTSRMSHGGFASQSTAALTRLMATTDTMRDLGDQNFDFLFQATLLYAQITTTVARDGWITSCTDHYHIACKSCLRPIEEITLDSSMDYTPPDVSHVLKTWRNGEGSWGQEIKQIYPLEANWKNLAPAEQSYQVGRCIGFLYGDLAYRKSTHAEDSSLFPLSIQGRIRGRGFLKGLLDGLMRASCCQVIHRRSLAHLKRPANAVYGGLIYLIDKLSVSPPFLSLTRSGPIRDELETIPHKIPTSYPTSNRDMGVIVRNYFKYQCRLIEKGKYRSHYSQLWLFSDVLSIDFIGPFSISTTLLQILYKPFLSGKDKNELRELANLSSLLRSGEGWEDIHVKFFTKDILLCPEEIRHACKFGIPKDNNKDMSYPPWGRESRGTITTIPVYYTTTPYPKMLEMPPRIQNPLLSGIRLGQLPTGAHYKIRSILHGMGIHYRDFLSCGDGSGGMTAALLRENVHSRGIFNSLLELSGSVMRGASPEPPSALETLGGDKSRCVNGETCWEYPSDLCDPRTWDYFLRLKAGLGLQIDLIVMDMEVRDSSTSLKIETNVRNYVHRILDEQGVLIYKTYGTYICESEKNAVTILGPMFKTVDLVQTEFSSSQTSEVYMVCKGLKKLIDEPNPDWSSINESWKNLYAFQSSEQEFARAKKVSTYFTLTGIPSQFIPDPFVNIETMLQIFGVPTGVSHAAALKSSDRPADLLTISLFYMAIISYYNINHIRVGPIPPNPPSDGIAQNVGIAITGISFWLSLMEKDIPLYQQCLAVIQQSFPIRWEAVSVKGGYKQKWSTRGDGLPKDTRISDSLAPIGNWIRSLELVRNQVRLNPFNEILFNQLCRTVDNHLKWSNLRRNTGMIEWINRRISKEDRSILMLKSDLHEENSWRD

## O=C(O)C(=O)CC(=O)C1(Cc2ccc(Cl)cc2)CCCN(Cc2ccccc2)C1 (centres unmarked) [Compound A, 4-[N-benzyl-3-(4-chlorobenzyl)piperidin-3-yl]2,4-dioxobutanoic acid hydrochloride]
[1]
  IC50: 1.1 µM
[1]; read-out: IC50, inhibition of influenza virus transcription
  IC50: 1.1 µM
VSV transcription
  IC50: > 500 µM
T7 Phage RNA Polymerase
  IC50: > 100 µM
Hela RNA Polymerase II
  IC50: > 500 µM
Hela DNA Polymerase-a
  IC50: > 100 µM
HIV RNase H
  IC50: 100 µM
[2]
  IC50: > 500 µM
Influenza Endonuclease
  IC50: 1.8 µM
[3]
  IC50: 0.25 µM
[4]
  IC50: 0.5 µM
[5]
  IC50: 0.62 µM
[6]
  IC50: 0.85 µM
[7]
  IC50: > 1000 µM
RNase A
  IC50: > 200 µM
RNase U2
  IC50: > 200 µM
RNase T1
  IC50: > 200 µM
